Laboratory results as given in patent publication US20260234165A1, “MACROCYCLIC COMPOUNDS, PREPARATION METHOD THEREFOR, AND USE THEREOF” (GENFLEET THERAPEUTICS (SHANGHAI) INC., priority 2004, published 2026).
Structures can show the parent of a compound that is named as a salt. Where two headings read alike, the source gives them in different places.

Legend:
Type in all cases: cell-based, human
[1] = system: p-ERK in NCI-H441 cells (KRAS G12V mutation); assay: Cell p-ERK assay (HTRF) in NCI-H441 cells; conditions: NCI-H441 cells, 3 h compound incubation, HTRF p-ERK T202/Y204, read-out: H441 p-ERK IC50
How it was run: (§1)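 IC50 values derive from four-parameter fitting of p-ERK (T202/Y204) HTRF inhibition, normalized to DMSO and blank controls. The lysates came from cells exposed for 3 h to serial 3.16-fold compound dilutions at 0.1% DMSO, after overnight plating at 10000 AsPC-1 or 20000 NCI-H441 cells per well.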

[2] = system: AsPC-1 cells (KRAS G12D mutation); assay: 3D cell proliferation assay (CellTiter Glo-3D), AsPC-1; conditions: medium with 2% FBS, read-out: AsPC-1 AP IC50
Text: MIA PaCa-2 cells were purchased from ATCC, Cat. No. CRL-1420; AsPC-1 cells were purchased from ATCC, Cat. No. CRL-1682; NCI-H441 cells were purchased from ATCC, Cat. No. HTB-174: NCI-H1975 cells were purchased from ATCC. Cat. No. CRL-5908; DMEM medium was purchased from Gibco, Cat. No. 11995-065: RPMI-1040 medium was purchased from Gibco. Cat. No. H 18754093; FBS was purchased from Gibco, Cat. No. 10099-141C. penicillin, streptomycin double-antibiotic solution (PS) was purchased from Gibco, Cat. No. 15140-122; Horse serum was purchased from Gibco. Cat. No. 16050130: trypsin (containing EDTA) was purchased from Gibco, Cat. No. 25200-072; DMSO was purchased from VWRAMRESCO, Cat. No. 0231-500ML; 384-well cell culture plates were purchased from Corning, Cat. No. 3830; white-bottomed, opaque 384-well assay plates were purchased from Corning, Cat. No. 3570. CellTiter Glo-3D) kit was purchased from Promega. Cat. No. G9683; cell counter was purchased from CHEMOMETEC, model: NC-200: microplate reader was purchased from PerkinElmer, model: EnVision.
MIA PaCa-2, a human pancreatic cancer cell strain endogenously containing a KRAS^G12C mutation, was cultured in a complete medium containing DMEM+10% FBS+2.5% Horse serum+1% PS. AsPC-1, a human pancreatic cancer cell strain endogenously containing a […] mutation, was cultured in a complete medium containing RPMI-1640+10% FBS+1% PS. NCI-H441 cells, a human lung cancer cell strain endogenously containing a […] mutation, were cultured in a complete medium containing RPMI-1640+10% FBS+1% PS. NCI-H1975, a KRAS wild-type human lung cancer cell strain whose cell proliferation depends on KRAS activity, was cultured in a complete medium containing RPMI-1640+10% FBS+1% PS.
The cells were digested with trypsin (containing EDTA), collected in their respective low-serum complete media containing 2% FBS (for MIA Paca-2 cell culture: DMEM+2% FBS+0.5% Horse serum+1% PS), and counted. After the cell density was adjusted as required, 200 MIA PaCa-2 cells, 800 AsPC-1 cells, 800 NCI-H441 cells, or 400 NCI-H1975 cells per well were seeded into a 384-well cell culture plate, with the volume of the medium in each well being 45 μL. The cell culture plate was incubated in an incubator at 37° C. with 5% CO2, overnight. A series of 3.16-fold gradient dilutions of a 1000× compound stock solution were prepared with DMSO, and then diluted 100-fold with the complete medium containing 2% FBS described above to give 10- compound stock solutions. On the day after cell seeding, 5 μL of the 10- compound stock solution was added to each cell culture well. As a result, the final concentration of the compound in the cell culture well became 1×, and the DMSO content in the well was 0.1%. In addition to the compound-treated wells described above, cell-containing DMSO control wells (with 5 μL of the complete medium containing 1% DMSO added to each well) and cell-free medium control wells (containing 50 μL of the complete medium with 2% FBS) were also set. The culture plate was incubated in an incubator at 37° C. with 5% CO2 for another 5 days, and then 30 μL of CellTiter-Glo working solution was added to each well. The mixture was well mixed, incubated for 30 min, left to stand at room temperature for 30 min, and then transferred to a white-bottomed, opaque 384-well assay plate at 40 μL/well. The chemiluminescence values (RLU) were measured using a microplate reader, and the cell proliferation inhibition rate for each well was calculated: IR (%)=(RLUDMSO—RLUcompound)/(RLUDMSO−RLUblank)×100%, where RLUDMSO is the average RLU signal value from the DMSO control well samples, RLUblank is the average RLU signal value from the medium control well samples, and RLUcompound is the RLU signal value from the compound-treated well samples. […]

[3] = system: NCI-H441 cells; assay: 3D cell proliferation assay (CellTiter Glo-3D), NCI-H441; conditions: medium with 2% FBS, read-out: H441 AP IC50
How it was run: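 Cells seeded at 800 per well in medium with 2% FBS, treated next day with 3.16-fold dilution series (0.1% DMSO) for 5 days at 37°C. Viability by CellTiter-Glo 3D luminescence; inhibition normalised to DMSO and cell-free controls, IC50 by four-parameter fit.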

[4] = system: p-ERK in AsPC-1 cells (KRAS G12D mutation); assay: Cell p-ERK assay (HTRF) in AsPC-1 cells; conditions: AsPC-1 cells, 3 h compound incubation, HTRF p-ERK T202/Y204, read-out: AsPC-1 p-ERK IC50
How it was run: as §1

[5] = Homo sapiens, ASPC1, 3D cell proliferation (CellTiter Glo-3D)
[6] = Homo sapiens, NCI-H441, 3D cell proliferation (CellTiter Glo-3D)
[7] = 3D cell proliferation (CellTiter Glo-3D)

Row | Compound | IC50 ([1]; Homo sapiens, NCI-H441, 3 h) | IC50 [2, 5] | IC50 [3, 6] | IC50 ([4]; Homo sapiens, ASPC1, 3 h) | IC50 [1] | IC50 [2, 7] | IC50 [3, 7] | IC50 [4]
1 | CCn1c(-c2cc(N3CCN(C)CC3)cnc2[C@H](C)OC)c2c3cc(ccc31)-c1csc(n1)C[C@H](NC(=O)C(C)(C)F)C(=O)N1CCC[C@H](N1)C(=O)OCC(C)(C)C2 (atropisomer, axis not shown; (Ra)) [Compound Z66, N-((6^3S,4S,Z)-1^1-ethyl-(Ra)-1^2-(2-((S)-1-methoxyethyl)-5-(4-(methyl-d3)piperazin-1-yl)pyridin-3-yl)-10,10-dimethyl-5,7-dioxa-6^1,6^2,6^3,6^4,6^5,6^6-hexahydro-1^1H-8-oxa-2(4,2)-thiazola-1(5,3)-indola-6(1,3)-pyridazinacycloundecaphane-4-yl)-2-fluoro-2-methylpropanamide] |  |  |  |  | 4.26 nM | 20.9 nM | 5.69 nM | 2.72 nM
2 | CCn1c(-c2cc(N3CCN(C)CC3)cnc2[C@H](C)OC)c2c3cc(ccc31)-c1csc(n1)C[C@H](NC1=NCCO1)C(=O)N1CCC[C@H](N1)C(=O)OCC(C)(C)C2 (atropisomer, axis not shown; (Ra)) [Compound Z71, (6^3S,4S,Z)-1^1-ethyl-(Ra)-1^2-(2-((S)-1-methoxyethyl)-5-(4-methylpiperazin-1-yl)pyridin-3-yl)-10,10-dimethyl-4-((4.5-dihydrooxazol-2-yl)amino)-6^1,6^2,6^3,6^4,6^5,6^6-hexahydro-1^1H-8-oxa-2(4,2)-thiazola-1(5,3)-indola-6(1,3)-pyridazinacycloundecaphane-5,7-dione formate] | 41.7 nM | 302 nM | 149 nM | 96.4 nM |  |  |  | 
3 | CCn1c(-c2cc(N3CCN4CCOC[C@@H]4C3)cnc2[C@H](C)OC)c2c3cc(ccc31)-c1csc(n1)C[C@H](NC(=O)[C@H]1[C@H](C)[C@@H]1C)C(=O)N1CCC[C@H](N1)C(=O)OCC(C)(C)C2 (atropisomer, axis not shown; (Ra)) [Compound Z73, (1r,2R,3S)—N-((6^3S,4S,Z)-1^1-ethyl-(Ra)-1^2-(5-((S)-hexahydropyrazino[2,1-c][1,4]oxazin-8(1H)-yl)-2-((S)-1-(methoxy-d3)ethyl)pyridin-3-yl)-10,10-dimethyl-5,7-dioxo-6^1,6^2,6^3,6^4,6^5,6^6-hexahydro-1^1H-8-oxa-2(4,2)-thiazola-1(5,3)-indola-6(1,3)-pyridazinacycloundecaphane-4-yl)-2,3-dimethylcyclopropane-1-carboxamide] |  |  |  |  | 0.24 nM | 0.65 nM | 0.35 nM | 0.21 nM

Next, values leading:

Row | IC50 ([1]; Homo sapiens, NCI-H441, 3 h) | IC50 [2, 5] | IC50 [3, 6] | IC50 ([4]; Homo sapiens, ASPC1, 3 h) | IC50 [1] | IC50 [2, 7] | IC50 [3, 7] | IC50 [4] | Compound
4 | 3.32 nM | 12.8 nM | 6.27 nM | 6.24 nM |  |  |  |  | [2H]C([2H])([2H])O[C@@H](C)c1ncc(N2CCN(C)CC2)cc1-c1c2c3cc(ccc3n1CC)-c1csc(n1)C[C@H](NC(=O)C(C)(C)F)C(=O)N1CCC[C@H](N1)C(=O)OCC(C)(C)C2 (atropisomer, axis not shown; (Ra)) [Compound Z64, N-((1^2R,6^3S,4S,Z)-1^1-ethyl-(Ra)-1^2-(2-((S)-1-(methoxy-d3)ethyl)-5-(4-methylpiperazin-1-yl)pyridin-3-yl)-10,10-dimethyl-5,7-dioxo-6^1,6^2,6^3,6^4,6^5,6^6-hexahydro-1^1H-8-oxa-2(4,2)-thiazola-1(5,3)-indola-6(1,3)-pyridazinacycloundecaphane-4-yl)-2-fluoro-2-methylpropanamide]
5 |  | 2.09 nM | 0.62 nM |  | 0.96 nM |  |  | 0.38 nM | C=C1CCN2CCN(c3cnc([C@H](C)OC)c(-c4c5c6cc(ccc6n4CC)-c4csc(n4)C[C@H](NC(=O)[C@H]4[C@H](C)[C@@H]4C)C(=O)N4CCC[C@H](N4)C(=O)OCC(C)(C)C5)c3)C[C@H]2C1 (atropisomer, axis not shown; (Ra)) [Compound Z309, (1r,2R,3S)—N-((6^3S,4S,Z)-1^1-ethyl-(Ra)-1^2-(2-((S)-1-methoxyethyl)-5-((R)-8-methyleneoctahydro-2H-pyrido[1,2-a]pyrazin-2-yl)pyridin-3-yl)-10,10-dimethyl-5,7-dioxo-6^1,6^2,6^3,6^4,6^5,6^6-hexahydro-1^1H-8-oxa-2(4,2)-thiazola-1(5,3)-indola-6(1,3)-pyridazinacycloundecaphane-4-yl)-2,3-dimethylcyclopropane-1-carboxamide]
6 | 0.71 nM | 0.82 nM | 0.67 nM | 0.48 nM |  |  |  |  | CO[C@@H](C)c1ncc(C#CCN2CCC2)cc1-c1c2c3cc(ccc3n1CC(F)(F)F)-c1csc(n1)C[C@H](NC(=O)[C@H]1[C@H](C)[C@@H]1C)C(=O)N1CCC[C@H](N1)C(=O)OCC(C)(C)C2 (atropisomer, axis not shown; (Ra)) [Compound Z362-2, (1r,2R,3S)—N-((6^3S,4S,Z)-1′-(5-(3-(azetidin-1-yl)prop-1-yn-1-yl)-(Ra)-2-((S)-1-methoxyethyl)pyridin-3-yl)-10,10-dimethyl-5,7-dioxo-1^1-(2,2,2-trifluoroethyl)-6^1,6^2,6^3,6^4,6^5,6^6-hexahydro-1^1H-8-oxa-2(4,2)-thiazola-1(5,3)-indola-6(1,3)-pyridazinacycloundecaphane-4-yl)-2,3-dimethylcyclopropane-1-carboxamide]
7 | 0.91 nM | 6.9 nM | 3.7 nM | 3.92 nM |  |  |  |  | CCn1c(-c2cc(OCCN3CCOC4(CC4)C3)cnc2[C@H](C)OC)c2c3cc(ccc31)-c1csc(n1)C[C@H](NC(=O)[C@H]1[C@H](C)[C@@H]1C)C(=O)N1CCC[C@H](N1)C(=O)OCC1(CC1)C2 (atropisomer, axis not shown; (Ra)) [Compound Z375]
